Values joined by “and” are separate entries in the source; they are usually repeats but may differ in a detail not shown here. Equal values may be shown once.
Target: T1, CYP2B6 (Homo sapiens, UniProt P20813)
T1 construct: host or cells: PXB-cells (icHep: JFC, HUM181001B; sandwich culture: JFC)
T1 sequence (P20813 1-491): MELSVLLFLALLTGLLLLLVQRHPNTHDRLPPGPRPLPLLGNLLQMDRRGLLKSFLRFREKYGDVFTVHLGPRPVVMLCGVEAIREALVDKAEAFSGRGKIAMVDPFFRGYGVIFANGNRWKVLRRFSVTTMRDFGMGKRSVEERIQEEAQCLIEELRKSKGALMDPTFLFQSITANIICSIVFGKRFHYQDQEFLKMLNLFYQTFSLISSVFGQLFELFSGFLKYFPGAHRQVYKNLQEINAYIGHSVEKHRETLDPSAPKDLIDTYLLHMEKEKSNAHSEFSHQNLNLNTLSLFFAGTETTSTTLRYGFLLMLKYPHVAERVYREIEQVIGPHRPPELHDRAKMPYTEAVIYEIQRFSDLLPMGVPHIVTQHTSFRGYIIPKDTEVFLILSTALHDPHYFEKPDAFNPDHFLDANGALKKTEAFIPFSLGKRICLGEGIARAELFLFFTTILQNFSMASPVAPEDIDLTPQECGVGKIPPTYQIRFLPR
Assay: Metabolic assay, cocktail substrate method (bupropion to hydroxybupropion)
Type: in vitro ADME
Details: for Enzyme activity, Mean: mean of Well-1 to Well-4
Experimental: The metabolic activity of icHep and sandwich-cultured PXB-cells was measured using the cocktail substrate method of drug-metabolizing enzymes. The components of the cocktail are summarized in Supplementary Table 1. Assays were initiated by treating cells with TB containing cocktail substrates. Time point of each substrate was set when a linear increase in its metabolite production was observed. Concentrations of metabolites produced in the medium were measured by liquid chromatography-mass spectrometry (LC-MS/MS).

## C[C@H]1NC(C)(C)CO[C@]1(O)c1cccc(Cl)c1 [Hydroxybupropion]
PXB-cells (JFC), incubation time 15 min, single wells
  Enzyme activity: 28.7722 pmol/106 cells and 21.7302 pmol/106 cells and 27.8435 pmol/106 cells and 35.831 pmol/106 cells
PXB-cells (JFC), incubation time 45 min, single wells
  Enzyme activity: 59.3541 pmol/106 cells and 57.6847 pmol/106 cells and 69.4473 pmol/106 cells and 46.5889 pmol/106 cells
PXB-cells (JFC), incubation time 60 min, single wells
  Enzyme activity: 62.0864 pmol/106 cells and 73.8816 pmol/106 cells and 59.3241 pmol/106 cells and 58.6637 pmol/106 cells
PXB-cells (JFC), incubation time 90 min, single wells
  Enzyme activity: 76.5226 pmol/106 cells and 51.4054 pmol/106 cells and 51.8001 pmol/106 cells and 50.3819 pmol/106 cells
PXB-cells (JFC)
  Enzyme activity, Mean: 0.991 pmol/min/106 cells
icHep (HUM18100B), incubation time 15 min, single wells
  Enzyme activity: 25.5794 pmol/106 cells and 30.4047 pmol/106 cells and 24.7422 pmol/106 cells and 24.915 pmol/106 cells
icHep (HUM18100B), incubation time 30 min, single wells
  Enzyme activity: 35.9071 pmol/106 cells and 54.335 pmol/106 cells and 43.958 pmol/106 cells and 62.1937 pmol/106 cells
icHep (HUM18100B), incubation time 45 min, single wells
  Enzyme activity: 67.877 pmol/106 cells and 59.438 pmol/106 cells and 65.4881 pmol/106 cells and 59.5632 pmol/106 cells
icHep (HUM18100B), incubation time 60 min, single wells
  Enzyme activity: 76.2731 pmol/106 cells and 66.7099 pmol/106 cells and 66.2746 pmol/106 cells and 64.1847 pmol/106 cells
icHep (HUM18100B), incubation time 90 min, single wells
  Enzyme activity: 84.2201 pmol/106 cells and 81.8175 pmol/106 cells and 75.5651 pmol/106 cells and 70.6836 pmol/106 cells
icHep (HUM18100B)
  Enzyme activity, Mean: 1.22 pmol/min/106 cells
icHep (HUM18100B), rate per single well
  Enzyme activity: 1.41 pmol/min/106 cells and 0.968 pmol/min/106 cells and 1.36 pmol/min/106 cells and 1.15 pmol/min/106 cells
icHep (JFC), incubation time 15 min, single wells
  Enzyme activity: 26.9509 pmol/106 cells and 26.6361 pmol/106 cells and 28.1971 pmol/106 cells and 21.5678 pmol/106 cells
icHep (JFC), incubation time 30 min, single wells
  Enzyme activity: 50.8052 pmol/106 cells and 52.8459 pmol/106 cells and 41.4458 pmol/106 cells and 41.1487 pmol/106 cells
icHep (JFC), incubation time 45 min, single wells
  Enzyme activity: 61.1962 pmol/106 cells and 63.9863 pmol/106 cells and 63.4142 pmol/106 cells and 59.0445 pmol/106 cells
icHep (JFC), incubation time 60 min, single wells
  Enzyme activity: 56.6821 pmol/106 cells and 56.5302 pmol/106 cells and 54.8514 pmol/106 cells and 60.04 pmol/106 cells
icHep (JFC), incubation time 90 min, single wells
  Enzyme activity: 69.6732 pmol/106 cells and 73.6155 pmol/106 cells and 56.0547 pmol/106 cells and 49.9876 pmol/106 cells
icHep (JFC)
  Enzyme activity, Mean: 1.20 pmol/min/106 cells
icHep (JFC), rate per single well
  Enzyme activity: 1.14 pmol/min/106 cells and 1.25 pmol/min/106 cells and 1.17 pmol/min/106 cells
